Reference: patent US20180243190A1, “ACTIVATORS OF NRF2-DEPENDENT PHOTOPROTECTION AND RELATED USES THEREOF” (THE ARIZONA BOARD OF REGENTS ON BEHALF OF THE UNIVERSITY OF …, priority 2015, published 2018)

How the values were obtained:
[1] = system: NRF2; experiment: Cell-based NRF2 ubiquitination assay; parameters: species or system human; conditions: HaCaT, bixin 40 μM or SF 5 μM with MG132 10 μM, 4 h
Procedure: In order to test if bixin-based NRF2 activation occurs through inhibition of KEAP1-mediated ubiquitination, a cell-based ubiquitination assay was performed in HaCaT cells cotransfected with expression vectors for NRF2 and HA-tagged ubiquitin (HA-Ub) (FIG. 3F). To this end, cells were either exposed to bixin (40 μM) or sulforaphane (SF; 5 μM, positive control) or left untreated, combined with proteasome inhibition (MG132; 10 μM, 4 h).
Experiments were performed according to previously published procedures. Cells were harvested in sample buffer (50 mM Tris-HCl [pH 6.8], 2% sodium dodecyl sulfate (SDS), 10% glycerol, 100 mM dithiothreitol (DTT), and 0.1% bromophenol blue), boiled and sonicated. Total cell lysates were resolved by SDS-PAGE and subjected to immunoblot analyses with the indicated antibodies. For the ubiquitination assay, cells were cotransfected with expression vectors for NRF2 and HA-tagged ubiquitin (HA-Ub). Cells were left untreated or treated with either 5 μM sulforaphane (SF) or 40 μM bixin along with 10 μM MG132 for 4 h. Cells were harvested in buffer containing 2% SDS, 150 mM NaCl, 10 mM Tris-HCl (pH 8.0), and 1 mM DTT and boiled immediately. […] The relative intensity of the bands was quantified using the ChemiDoc CRS gel documentation system and Quantity One software (BioRad).

[2] = biological target: T1, KEAP1 wild type (KEAP1-WT) (Homo sapiens, UniProt Q14145); format: cell-based; conditions: SF 5 μM, As 5 μM, bixin 40 μM; 16 h
T1 construct: expressed in transfected cells; host or cells: HaCaT human keratinocytes
Description: (§1) Since it has been shown previously that NRF2 activation by canonical inducers (including SF and tBHQ) depends on C (Cys)-151, a critical cysteine residue in KEAP1, the mechanistic involvement of KEAP1-C151 bixin-based NRF2 activation was examined. HaCaT cells were cotransfected with expression vectors for either KEAP1 wild type (KEAP1-WT) or a mutant KEAP1 (KEAP1-C151S; Cys-151 mutated to serine) along with ARE-firefly luciferase and Renilla luciferase reporters to assess NRF2 transcriptional activity (FIG. 3G). After exposure to SF (5 μM), As (sodium arsenite; 5 μM), or bixin (40 μM; all 16 h), NRF2 transcriptional activity was enhanced by all treatments in KEAP1-WT cells, whereas NRF2 activation by SF or bixin was abolished in KEAP1-C151S cells.
(§2) Transfection of cDNA was performed using Lipofectamine 3000 (Invitrogen) according to the manufacturer's instructions. Activation of NRF2 transcriptional activity was performed as previously published. Briefly, HaCaT cells were cotransfected with expression vectors for either KEAP1 wild type (KEAP1-WT) or KEAP1 with a mutation that generates a protein that contains a serine residue instead of a cysteine (KEAP1-C151S), along with NQO1-ARE firefly luciferase and Renilla luciferase reporters. At 24 h post-transfection, cells were left untreated or treated with SF (5 μM), As (5 μM), or bixin (40 μM) for 16 h. The cells were then lysed for analysis of the reporter gene activity using the Promega dual-luciferase reporter gene assay system.

[3] = biological target: T2, KEAP1-C151S (Homo sapiens, UniProt Q14145, C151S); format: cell-based; conditions: SF 5 μM, As 5 μM, bixin 40 μM; 16 h
T2 construct: expressed in transfected cells; host or cells: HaCaT human keratinocytes
Description: as §1, §2

[4] = system: HaCaT keratinocytes; parameters: cytoprotection against 1O2-induced oxidative stress: dose or concentration left out as unconfirmed; conditions: HaCaT
Procedure: Photodynamic induction of intracellular oxidative stress and its suppression by bixin pretreatment was analyzed by flow cytometry using 2′,7′-dichlorodihydrofluorescein diacetate (DCFH-DA) as a sensitive non-fluorescent precursor dye according to a published standard procedure [14]. HaCaT keratinocytes were pretreated with bixin (1 or 24 h) and then exposed to singlet oxygen generated by dye-sensitization as described earlier [14, 44]. In brief, toluidine blue 0 (TB) photosensitization was achieved using a ‘Sylvania 15 W Cool White’ light tube delivering visible light at an irradiance of 4.29 mW/cm^2. The irradiance in the visible region (400-700 nm) was determined using a spectroradiometer, Model 754 from Optronic Laboratories (Orlando, Fla.). Cells received visible radiation at a distance of 50 mm from the source through the polystyrene lids of cell culture dishes. For ^1O2 exposure, cells were washed with PBS and immediately exposed to the combined action of visible light (0.3 J/cm^2) and TB (3.3 μM) in PBS. Following 5 min incubation in the dark after irradiation, cells were washed with PBS. Cells were then incubated for 60 min in the dark (37° C., 5% CO2) with culture medium containing DCFH-DA (5 μg/mL final concentration). Cells were then washed with PBS, harvested by trypsinization, resuspended in 300 μl PBS, and analyzed by flow cytometry.

T2 sequence (Q14145 whole entry C151S): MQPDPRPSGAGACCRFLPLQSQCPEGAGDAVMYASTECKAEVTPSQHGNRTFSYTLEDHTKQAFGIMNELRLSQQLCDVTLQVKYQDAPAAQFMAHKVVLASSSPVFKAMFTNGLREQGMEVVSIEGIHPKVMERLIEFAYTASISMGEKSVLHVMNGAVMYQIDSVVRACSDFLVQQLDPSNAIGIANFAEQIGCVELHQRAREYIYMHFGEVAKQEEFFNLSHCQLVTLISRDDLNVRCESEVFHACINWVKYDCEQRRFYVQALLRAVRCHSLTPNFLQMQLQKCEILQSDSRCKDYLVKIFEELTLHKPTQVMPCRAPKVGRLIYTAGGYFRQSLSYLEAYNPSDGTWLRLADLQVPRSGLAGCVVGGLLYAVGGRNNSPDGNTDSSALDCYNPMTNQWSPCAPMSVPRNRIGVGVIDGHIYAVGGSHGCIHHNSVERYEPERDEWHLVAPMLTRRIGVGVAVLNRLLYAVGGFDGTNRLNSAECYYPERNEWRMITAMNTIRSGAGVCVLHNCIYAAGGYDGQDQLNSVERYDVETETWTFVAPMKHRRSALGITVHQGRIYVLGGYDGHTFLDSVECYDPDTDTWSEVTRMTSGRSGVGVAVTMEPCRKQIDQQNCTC
T1 sequence (Q14145 whole entry, species assumed): as the sequence (Q14145 whole entry C151S) above, with S151C counted along it

C[S+]([O-])CCCCN=C=S (stereo not drawn) [SF, sulforaphane]
NRF2-ubiquitination versus untreated control [1]: inhibitory effects
NRF2 transcriptional activity in KEAP1-WT cells [2]: enhanced
NRF2 activation in KEAP1-C151S cells [3]: abolished

[N-]=[N+]=[N-].[Na+] [NaN3, reference compound]
cytoprotection against 1O2-induced oxidative stress [4]: active only if present during visible light-driven dye sensitization

O=[As]O [As, sodium arsenite]
NRF2 transcriptional activity in KEAP1-WT cells [2]: enhanced
NRF2 activation in KEAP1-C151S cells [3]: equally effective
